Measurements as given in US20240197700A1, “Methods and Compositions for Treating Lysosomal Storage Disorders” (Sanford Health, priority 2021, published 2024).
Entries after “also recorded” stand apart in the source; their conditions may differ.

What was measured:
[1] = test system: TFEB target genes; test: Comparative transcriptomic analysis (RNA sequencing, DEGs) in wild type MEFs; type: cell-based, mouse; settings: 40 nM, dosed DIV3, RNA isolation DIV5
Method: Comparative transcriptomic analysis of differentially expressed genes in AF38469 treated and vehicle treated wild type mouse embryonic fibroblasts. Wild type mouse embryonic fibroblasts were treated with vehicle or AF38469 (40 nM). Cells were plated on in vitro day 0, and cells were dosed with drug-containing media on DIV3, collection and RNA isolation occurred on DIV5. RNA sequencing and differentially expressed gene (DEG) analysis was performed with Novogene. DEGs were compared to lists of lysosomal genes and genes under TFEB regulation.

[2] = test system: Cln2^R207X mice; test: Astroglial activation (GFAP) in brain of Cln2^R207X mice; type: in vivo, mouse
Method: Specific experimental details are included in figure legends. In general, after collection and preparation, MEFs and PNCs were dosed with vehicle or AF38469 (40 nM, 400 nM. or 4 μM) on DIV3 and DIV5. On DIV7, cells were treated with the following dyes: Hoechst 33342 (1:1000 dilution), LysoTrackerT™ Red DND-99 (1:10,000 dilution), fixed, and imaged. Mice were given vehicle or AF38469 (78.125 μg/ml, 3.125 μg/ml, 0.3125 μg/ml or 0.03125 μg/ml equating approximately to 250 μg/mouse/day, 10 μg/mouse/day, 1 μg/mouse/day, and […], respectively, given a mouse's daily water intake of approximately 3.2 ml per day) in drinking water beginning at wean. Body weight was measured bi-weekly, and a force actimeter test was performed on Cln2^R207X mice at 10 weeks of age. Body weight was measured every month for Cln3^Δex7/8 mice. At 11 and 16 weeks of age, respectively, Cln2^R207X and Cln3^Δex7/8 mice along with age matched wild type control mice were CO2 euthanized and intracardially perfused with PBS. Brains were collected and placed on a 1 mm sagittal brain block. Brains were sliced at the midline and 3 mm right of the midline. One hemisphere was fixed in 4% PFA and sectioned at 50 microns on a vibratome. Immunohistochemistry was performed on free-floating sections. For mitochondrial ATP synthase subunit C (SubC), glial fibrillary acidic protein (GFAP), and cluster of differentiation 68 (CD68) immunolabeling, primary antibodies included anti-SubC (Abcam, ab181243; 1:1000), anti-GFAP (Dako, Z0334; 1:5000), anti-CD68 (AbD Serotec, MCA1957; 1:2000), and secondary antibodies included anti-rabbit biotinylated (Vector Labs, BA-1000 1:1000) and anti-rat (Vector Labs, BA-9400 1:1000). Coverslips were mounted on slides using antifade-mounting media and were stored in the dark before imaging. Sections were imaged and analyzed using an Aperio Digital Pathology Slide Scanner (AT2) and associated software. Images were extracted from S1BF of the somatosensory cortex and the VPM/VPL of the thalamus, with multiple images taken of multiple tissues from each animal.
Short-term chronic treatment with AF38469 impacts glial activation in Cln2^R207X mice. Beginning at wean, wild type and Cln2^R207X mice were treated with vehicle (0.2408% DMSO) or AF38469 (0.03125 μg/ml, 0.3125 μg/ml, 3.125 μg/ml, 78.125 μg/ml) continuously through the drinking water continuing until sacrifice at 11 weeks. Upon sacrifice, one hemisphere of brain was sectioned at 50 microns on a vibratome; DAB staining immunohistochemistry was then performed using anti-GFAP (Dako, Z0334; 1:5000), anti-CD68 (AbD Serotec, MCA1957; 1:2000), anti-rabbit biotinylated (Vector Labs, BA-1000 1:1000), and anti-rat (Vector Labs, BA-9400 1:1000). Sections were imaged and analyzed using an Aperio Digital Pathology Slide Scanner (AT2) and associated software. Images were extracted from S1BF of the somatosensory cortex and the VPM/VPL of the thalamus. Percent area of immunoreactivity were quantified using a threshold analysis in ImageJ™. Statistical analyses were performed using GraphPad Prism™ (v8.4.3; San Diego, CA). […] Increasing concentrations of AF38469 and corresponding genotypes are shown along the x-axis. Nested one-way ANOVA. Mean±S.E.M. Dunnett's multiple comparisons test compared to the mutant vehicle treated group. *p<0.05, **p<0.01, ***p<0.001, ****p<0.0001. Reactive gliosis including activated microglia and reactive astrocytes is one of the histopathologies associated with neurodegenerative diseases such as NCLs.

[3] = test system: Cathepsin D; test: Cathepsin D enzyme in MEF lysates; type: cell-based, mouse
Method: Since LM11A-31 stimulates the nuclear translocation of transcription factors responsible for lysosome biogenesis, we asked whether LM11A-31 increases the overall activity levels of lysosomalenzymes in cellulo. […] Wild type (WT) and mutant cells were treated with vehicle or LM11A-31 (100 nM). Cells were plated on day 0 and dosed with drug-containing media on DIV3 and DIV5. Cells were lysed, and protein quantification and enzyme activity assay were performed on DIV7. Data was analyzed with GraphPad Prism™. Two-way ANOVA. Mean±S.E.M. Tukey's multiple comparisons test. *p<0.05, **p<0.01, ***p<0.001, ****p<0.0001. […] Palmitoyl-protein thioesterase 1 (PPT1) is the lysosomal enzyme mutated in CLN1 disease and removes thioester-linked fatty acyl groups from modified cysteines of substrate proteins. Tripeptidyl peptidase 1 (TPP1) is the lysosomal enzyme mutated in CLN2 disease and has broad substrate specificity against various proteins degraded in the lysosome after cleavage. Mutations in the CTSD gene, encoding cathepsin d, a lysosomal protease that is involved in the recycling and degradation, is a known cause of Cln10 disease.

Structure (SMILES) | all lysosomal differentially expressed genes or lysosomal genes not regulated by TFEB [1] | expression of TFEB target genes [1] | astroglial activation (GFAP) ([2]; 3.125 μg/ml, 78.125 μg/ml, VPM/VPL of the thalamus) | astroglial activation (GFAP) ([2]; 3.125 μg/ml, somatosensory cortex) | astroglial activation (GFAP) ([2]; 78.125 μg/ml, somatosensory cortex) | GFAP reactivity ([2]; higher doses, summary statement) | astroglial activation (GFAP) ([2]; lower doses 0.03125 μg/ml, 0.3125 μg/ml) | levels of Cathepsin D ([3]; LM11A-31 100 nM, Cln2^R207X and Cln3^Δex7/8 MEFs, DIV7) | overall levels of activity for Cathepsin D enzyme in cell lysates ([3]; LM11A-31, overall statement (FIG. 15B))
Cc1cccc(NC(=O)c2ccc(C(F)(F)F)cc2C(=O)O)n1 [AF38469, 2-((6-methylpyridin-2-yl)carbamoyl)-5-(trifluoromethyl)benzoic acid] | no distinct pattern of up or down regulation | stimulated increased expression; also recorded: stimulates; also recorded: distinct pattern of upregulation | did not impact | significantly increased | had no impact | increased or had no impact | had no significant impact; also recorded: did not significantly impact |  | 
CC[C@H](C)[C@H](N)C(=O)NCCN1CCOCC1 [LM11A-31, N-[2-(morpholin-4-yl)ethyl]-L-isoleucinamide] |  |  |  |  |  |  |  | significantly decreased | increased the overall levels of activity
